Test results: patent publication US11472778B2, “Hepatitis C virus NS3/4A protease inhibitors” (priority 2017, dated 2022)
Read-outs that look alike come from different tables or passages of the source.

What was measured:
[1] = biological target: T1, wild-type GT1a NS3/4A protease (UniProt P27958, C1185S, species not given); type: biochemical, Hepatitis C virus; conditions: read-out: Ki (nM) GT1a WT; Table 6; P4/P4-P5 modified macrocycles
T1 construct: P4/P4-P5 modified macrocycles
In short: (§1)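 NS3/4A protease (2 nM; wild-type GT1a or D168A) pre-incubated 1 h at room temperature with increasing inhibitor in 50 mM Tris pH 7.5, 5% glycerol, 10 mM DTT, 0.6 mM LDAO, 4% DMSO. Ki from three independent data sets per construct; ΔG=RTlnKi.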

[2] = biological target: GT1a D168A NS3/4A protease; type: biochemical, Hepatitis C virus; conditions: for Ki (Fold Change) D168A: Table 6, with respect to GT1a wild-type
In short: as §1

[3] = biological target: T2, GT1a D168A NS3/4A protease (UniProt P27958, C1185S/D1194A, species not given); type: biochemical, Hepatitis C virus; conditions: read-out: Ki (nM) D168A; Table 6; P4/P4-P5 modified macrocycles
T2 construct: P4/P4-P5 modified macrocycles
In short: as §1

[4] = rcm bond; 15-membered ring; Zhan 1b; 1,2-DCE; 6.0 mM; 70.0 °C
GT3a NS3/4A protease = biological target: T3, GT3a NS3/4A protease (Hepatitis C virus genotype 3a, UniProt Q81495); assay: biochemical
T3 construct: drug-resistant variant D168A, and GT3a NS3/4A protease; made in house; host or cells: Escherichia coli BL21(DE3)
In short: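 Protease at 2 nM pre-incubated 1 h at room temperature with increasing inhibitor concentrations in 50 mM Tris, 5% glycerol, 10 mM DTT, 0.6 mM LDAO, 4% DMSO. Three independent data sets per inhibitor and construct.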

[5] = tested on: wild-type HCV replicon in Huh7 cells; assay: Cell-based drug susceptibility (replicon) assay, wild-type; conditions: Hepatitis C virus, read-out: Replicon EC50 (nM) WT
In short: (§2)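 Variants made by site-directed mutagenesis in a Con1 (genotype 1b) luciferase reporter replicon carrying H77 (genotype 1a) NS3. Replicon RNA electroporated into Huh7 cells; luciferase (RLU) measured 96 h post-electroporation across increasing protease inhibitor concentrations.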

[6] = tested on: HCV replicon A156T variant in Huh7 cells; assay: microbe, parasite or virus in culture; type: cell-based, Hepatitis C virus; conditions: for EC50: Hepatitis C virus
In short: as §2

[7] = tested on: HCV replicon D168A variant in Huh7 cells; assay: microbe, parasite or virus in culture; type: cell-based, Hepatitis C virus; conditions: for EC50: Hepatitis C virus
In short: as §2

[8] = tested on: HCV replicon R155K variant in Huh7 cells; assay: microbe, parasite or virus in culture; type: cell-based, Hepatitis C virus; conditions: for EC50: Hepatitis C virus
In short: as §2

[9] = tested on: HCV replicon D168V variant in Huh7 cells; assay: microbe, parasite or virus in culture; type: cell-based, Hepatitis C virus; conditions: for EC50: Hepatitis C virus
In short: as §2

[10] = biological target: GT1a R155K NS3/4A protease; type: biochemical, Hepatitis C virus; conditions: fold change in Ki, R155K relative to WT
In short: (§3)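 2 nM NS3/4A protease (GT1a, R155K and D168A constructs) pre-incubated 1 h at room temperature with increasing inhibitor concentrations in 50 mM Tris pH 7.5, 5% glycerol, 10 mM DTT, 0.6 mM LDAO, 4% DMSO. Three independent data sets per inhibitor and construct; ΔG of binding derived from Ki as ΔG=RTlnKi.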

[11] = biological target: GT1a R155K NS3/4A protease (UniProt P27958, R1181K, species not given); type: biochemical, Hepatitis C virus
In short: as §3

[12] = biological target: T4, wild-type GT1a NS3/4A protease (UniProt P27958, C1185S, species not given); type: biochemical, Hepatitis C virus; conditions: read-out: Ki (nM) GT1a WT NS3/4A Protease
T4 construct: Ki (nM) GT1a WT NS3/4A Protease
In short: as §1

[13] = biological target: T5, GT1a D168A NS3/4A protease (UniProt P27958, D1194A, species not given); type: biochemical, Hepatitis C virus
T5 construct: rows headed: Ki (nM) D168A; Ki D168A; other: D168A variant
In short: as §1

[14] = biological target: T6, GT1a D168A NS3/4A protease (UniProt P27958, C1185S/D1194A, species not given); type: biochemical, Hepatitis C virus; conditions: read-out: Ki (nM) GT1a D168A NS3/4A Protease
T6 construct: Ki (nM) GT1a D168A NS3/4A Protease
In short: as §1

[15] = biological target: T7, wild-type GT1a NS3/4A protease (UniProt P27958); type: biochemical, Hepatitis C virus
T7 construct: Ki WT; other: wild-type HCV NS3/4A protease
In short: as §1

[16] = Table 4, relative to WT replicon

T3 sequence (Q81495 1033-1214): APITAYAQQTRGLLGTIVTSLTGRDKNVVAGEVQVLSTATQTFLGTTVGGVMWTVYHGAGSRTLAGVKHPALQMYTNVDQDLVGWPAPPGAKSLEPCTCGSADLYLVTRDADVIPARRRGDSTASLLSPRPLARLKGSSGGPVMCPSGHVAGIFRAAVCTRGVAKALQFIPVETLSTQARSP

SMILES: COC(=O)N[C@H](C(=O)N[C@H]1CCCCC/C=C\[C@@H]2C[C@@]2(C(=O)NS(=O)(=O)C2(C)CC2)NC(=O)[C@@H]2C[C@@H](Oc3nc4cc(OC)ccc4nc3C)CN2C1=O)C(C)C [Compound P4-P5-3, Methyl ((S)-1-(((2R,6S,13aS,14aR,16aS,Z)-2-((7-methoxy-3-methylquinoxalin-2-yl)oxy)-14a-(((1-methylcyclopropyl)sulfonyl)carbamoyl)-5,16-dioxo-1,2,3,5,6,7,8,9,10,11,13a,14,14a,15,16,16a-hexadecahydrocyclopropa[e]pyrrolo[1,2-a][1,4]diazacyclopentadecin-6-yl)amino)-3-methyl-1-oxobutan-2-yl)carbamate]
- Ki [1]: 13 ± 0.8 nM
- Ki (Fold Change) D168A [2]: (8) fold
- Ki [3]: 102 ± 6.8 nM

SMILES: COc1ccc2nc(C)c(O[C@@H]3C[C@H]4C(=O)N[C@]5(C(=O)NS(=O)(=O)C6(C)CC6)C[C@H]5/C=C\CCCCC[C@H](NC(=O)[C@@H](NC(C)=O)C(C)C)C(=O)N4C3)nc2c1 [Compound P4-P5-4]
- Ki [1]: 11.1 ± 0.5 nM
- Ki (Fold Change) D168A [2]: (13) fold
- Ki [3]: 141 ± 18 nM

SMILES: CC[C@H](C)[C@H](NC(C)=O)C(=O)N[C@H]1CCCCC/C=C\[C@@H]2C[C@@]2(C(=O)NS(=O)(=O)C2(C)CC2)NC(=O)[C@@H]2C[C@@H](Oc3nc4cc(OC)ccc4nc3C)CN2C1=O [Compound P4-P5-6, (2R,6S,13aS,14aR,16aS,Z)-6-((2S,3S)-2-acetamido-3-methylpentanamido)-2-((7-methoxy-3-methylquinoxalin-2-yl)oxy)-N-((1-methylcyclopropyl)sulfonyl)-5,16-dioxo-1,2,3,6,7,8,9,10,11,13a,14,15,16,16a-tetradecahydrocyclopropa[e]pyrrolo[1,2-a][1,4]diazacyclopentadecine-14a(5H)-carboxamide]
- Ki [1]: 7.1 ± 0.24 nM
- Ki (Fold Change) D168A [2]: (11) fold
- Ki [3]: 81 ± 11 nM

SMILES: COC(=O)N[C@H](C(=O)N[C@H]1CCCCC/C=C\[C@@H]2C[C@@]2(C(=O)NS(=O)(=O)C2(C)CC2)NC(=O)[C@@H]2C[C@@H](Oc3nc4cc(OC)ccc4nc3C)CN2C1=O)C1CCCC1 [Compound P4-P5-5, Methyl ((S)-1-cyclopentyl-2-(((2R,6S,13aS,14aR,16aS,Z)-2-((7-methoxy-3-methylquinoxalin-2-yl)oxy)-14a-(((1-methylcyclopropyl)sulfonyl)carbamoyl)-5,16-dioxo-1,2,3,5,6,7,8,9,10,11,13a,14,14a,15,16,16a-hexadecahydrocyclopropa[e]pyrrolo[1,2-a][1,4]diazacyclopentadecin-6-yl)amino)-2-oxoethyl)carbamate]
- Ki [1]: 3.54 ± 0.13 nM
- Ki (Fold Change) D168A [2]: (9) fold
- Ki [3]: 31.6 ± 2.1 nM

SMILES: COc1ccc2nc(C)c(O[C@@H]3C[C@H]4C(=O)N[C@]5(C(=O)NS(=O)(=O)C6(C)CC6)C[C@H]5/C=C\CCCCC[C@H](NC(=O)[C@@H](NC(C)=O)C(C)(C)C)C(=O)N4C3)nc2c1 [Compound P4-P5-2]
- Ki [1]: 23.9 ± 1.7 nM
- Ki (Fold Change) D168A [2]: (9) fold
- Ki [3]: 215 ± 16 nM

SMILES: COc1ccc2nc(C)c(O[C@@H]3C[C@H]4C(=O)N[C@]5(C(=O)NS(=O)(=O)C6(C)CC6)C[C@H]5/C=C\CCCCC[C@H](NC(=O)OC5(C)CCCC5)C(=O)N4C3)nc2c1 [Compound P4-3, 1-methylcyclopentyl ((2R,6S,13aS,14aR,16aS,Z)-2-((7-methoxy-3-methylquinoxalin-2-yl)oxy)-14a-(((1-methylcyclopropyl)sulfonyl)carbamoyl)-5,16-dioxo-1,2,3,5,6,7,8,9,10,11,13a,14,14a,15,16,16a-hexadecahydrocyclopropa[e]pyrrolo[1,2-a][1,4]diazacyclopentadecin-6-yl)carbamate]
- Ki [1]: 1.78 ± 0.3 nM
- Ki (Fold Change) D168A [2]: (9) fold
- Ki [3]: 16 nM

SMILES: CCc1nc2ccc(OC)cc2nc1O[C@@H]1C[C@H]2C(=O)N[C@]3(C(=O)NS(=O)(=O)C4CC4)C[C@H]3/C=C\CCCCC[C@H](NC(=O)OC(C)(C)C)C(=O)N2C1 [Compound 2, tert-Butyl ((2R,6S,13aS,14aR,16aS,Z)-14a-((cyclopropylsulfonyl)carbamoyl)-2-((3-ethyl-7-methoxyquinoxalin-2-yl)oxy)-5,16-dioxo-1,2,3,5,6,7,8,9,10,11,13a,14,14a,15,16,16a-hexadecahydrocyclopropa[e]pyrrolo[1,2-a][1,4]diazacyclopentadecin-6-yl)carbamate]
- ring closure, isolated yield [4]: 53%
- Ki (GT3a NS3/4A protease): 204 nM
- Ki (Fold change) GT3a NS3/4A Protease (GT3a NS3/4A protease; Table 3, Ki GT3a relative to GT1a WT): (62) fold
- EC50 ([5]; Huh-7, 96 h, Table 2, Huh7 cells, luciferase 96 h): 0.33 nM
- EC50 ([5]; Huh-7, Table 4): 0.33 nM
- EC50 ([5]; Huh-7, Table 9): 0.33 nM
- EC50 ([6]; Huh-7, 96 h, read-out: Replicon EC50 (nM) A156T, Table 2, Huh7 cells, luciferase 96 h): 9.65 nM
- EC50 ([6]; Huh-7, read-out: Replicon EC50 (nM) A156T, Table 4): 9.65 nM
- EC50 ([6]; Huh-7, read-out: Replicon EC50 (nM) A156T, Table 9): 9.7 nM
- Replicon EC50 (Fold change) A156T [6, 16]: (29) fold
- Replicon EC50 (Fold change) A156T ([6]; Table 9, relative to WT): (29) fold
- EC50 ([7]; Huh-7, 96 h, read-out: Replicon EC50 (nM) D168A, Table 2, Huh7 cells, luciferase 96 h): 6.31 nM
- EC50 ([7]; Huh-7, read-out: Replicon EC50 (nM) D168A, Table 4): 6.31 nM
- EC50 ([7]; Huh-7, read-out: Replicon EC50 (nM) D168A, Table 9): 6.3 nM
- Replicon EC50 (Fold change) D168A [7, 16]: (19) fold
- Replicon EC50 (Fold change) D168A ([7]; Table 9, relative to WT): (19) fold
- EC50 ([8]; Huh-7, 96 h, read-out: Replicon EC50 (nM) R155K, Table 2, Huh7 cells, luciferase 96 h): 1.75 nM
- EC50 ([8]; Huh-7, read-out: Replicon EC50 (nM) R155K, Table 4): 1.75 nM
- EC50 ([8]; Huh-7, read-out: Replicon EC50 (nM) R155K, Table 9): 1.8 nM
- Replicon EC50 (Fold change) R155K [8, 16]: (5) fold
- Replicon EC50 (Fold change) R155K ([8]; Table 9, relative to WT): (5.5) fold
- EC50 ([9]; Huh-7, 96 h, read-out: Replicon EC50 (nM) D168V, Table 2, Huh7 cells, luciferase 96 h): 9.1 nM
- EC50 ([9]; Huh-7, read-out: Replicon EC50 (nM) D168V, Table 4): 9.1 nM
- EC50 ([9]; Huh-7, read-out: Replicon EC50 (nM) D168V, Table 9): 9.1 nM
- Replicon EC50 (Fold change) D168V [9, 16]: (28) fold
- Replicon EC50 (Fold change) D168V ([9]; Table 9, relative to WT): (28) fold
- Ki R155K (fold change) [10]: 1.6
- Ki ([11]; read-out: Ki (nM) R155K, Table 8, linear inhibitors): 3.1 ± 0.34 nM
- Ki ([11]; read-out: Ki R155K, R155K variant): 3.1 ± 0.34 nM
- Ki ([12]; Table 1): 3.29 nM
- Ki ([12]; Table 3): 3.29 nM
- Ki (Fold change) GT1a D168A NS3/4A Protease ([2]; Table 3, Ki D168A relative to GT1a WT): (25) fold
- Ki D168A (fold change) ([2]; fold change in Ki, D168A relative to WT): 46
- Ki ([13]; read-out: Ki (nM) D168A, Table 8, linear inhibitors): 91 ± 10 nM
- Ki ([13]; read-out: Ki D168A, D168A variant): 91 ± 10 nM
- Ki ([14]; Table 1): 82.4 nM
- Ki ([14]; Table 3): 82.4 ± 4.4 nM
- Ki ([15]; read-out: Ki (nM) WT, Table 8, linear inhibitors): 2 nM
- Ki ([15]; read-out: Ki WT, wild-type HCV NS3/4A protease): 2 ± 0.1 nM
